These results are taken from patent US6545002B1 (University of Virginia Patent Foundation, priority 1999, dated 2003).

For one series, the target named is T1, human A3 receptors (hA3) (Homo sapiens, UniProt P0DMS8).
T1 construct: expressed in transfected cells; host or cells: HEK-293
T1 sequence (P0DMS8 1-318): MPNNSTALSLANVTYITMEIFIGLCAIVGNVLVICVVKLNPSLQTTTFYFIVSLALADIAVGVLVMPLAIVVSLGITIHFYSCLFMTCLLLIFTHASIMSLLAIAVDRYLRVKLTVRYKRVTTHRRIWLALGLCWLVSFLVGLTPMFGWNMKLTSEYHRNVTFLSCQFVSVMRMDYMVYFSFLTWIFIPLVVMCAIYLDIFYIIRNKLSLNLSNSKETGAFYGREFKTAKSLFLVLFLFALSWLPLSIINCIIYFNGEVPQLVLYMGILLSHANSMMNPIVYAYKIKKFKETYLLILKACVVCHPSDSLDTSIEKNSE
The series can be described thus: Displacement of [125I]ABA binding at human A3 receptors expressed in HEK-293 cells. Conditions: Table 1; [125I]ABA, HEK-293; read-out: hA3 Ki or IC50.

The target of a further series is T2, rat A2A receptors (rA2A) (Rattus norvegicus, UniProt P30543).
T2 construct: to A2A receptors from rat striatal membranes was performed as described; from tissue; host or cells: rat striatal membranes
T2 sequence (P30543 whole entry): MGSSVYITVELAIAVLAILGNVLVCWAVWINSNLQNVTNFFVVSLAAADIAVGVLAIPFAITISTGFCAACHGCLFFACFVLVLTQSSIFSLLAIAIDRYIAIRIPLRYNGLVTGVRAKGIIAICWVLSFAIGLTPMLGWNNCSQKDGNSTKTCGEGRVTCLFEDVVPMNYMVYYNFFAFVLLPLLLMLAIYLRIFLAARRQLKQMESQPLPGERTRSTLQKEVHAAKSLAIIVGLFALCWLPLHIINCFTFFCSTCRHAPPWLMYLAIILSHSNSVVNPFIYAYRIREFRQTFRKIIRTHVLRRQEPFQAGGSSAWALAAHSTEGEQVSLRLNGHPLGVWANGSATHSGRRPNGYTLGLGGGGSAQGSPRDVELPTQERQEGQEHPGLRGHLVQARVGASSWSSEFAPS
The experiment in a line: Displacement of [3H]CGS 21680 binding in rat striatal membranes. Conditions: for Ki: read-out: rA2A Ki or IC50. How it is done: (§1) Bruns, R. F. et al., Naunyn-Schmiedeberg's Arch. […] Binding of [^3H]R-N^6-phenylisopropyladenosine. Schwabe, U. et al., Naunyn-Schmiedeberg's Arch. […] (Dupont NEN, Boston, Mass.) to A2A receptors from rat striatal membranes was performed as described. […] All non-radioactive compounds were initially dissolved in DMSO, and diluted with buffer to the final concentration, where the amount of DMSO never exceeded 2%. Incubations were terminated by rapid filtration over Whatman GF/B filters, using a Brandell cell harvester (Brandell, Gaithersburg, Md.). The tubes were rinsed three times with 3 mL buffer each.
(§2) At least six different concentrations of competitor, spanning 3 orders of magnitude adjusted appropriately for the IC50 of each compound, were used. IC50 values, calculated with the nonlinear regression method implemented in (Graph-Pad Prism, San Diego, Calif.), were converted to apparent Ki values as described. Linden, J., J. Cycl. Nucl.
Background: Loss of bound radioactivity is the signal in a displacement assay; it reports binding, not function.

Series [1] concerns the target T3, human A2B receptors (hA2B) (Homo sapiens, UniProt P29275).
T3 construct: expressed in transfected cells; host or cells: HEK-293 (HEK-A2B, G418-selected)
T3 sequence (P29275 1-332): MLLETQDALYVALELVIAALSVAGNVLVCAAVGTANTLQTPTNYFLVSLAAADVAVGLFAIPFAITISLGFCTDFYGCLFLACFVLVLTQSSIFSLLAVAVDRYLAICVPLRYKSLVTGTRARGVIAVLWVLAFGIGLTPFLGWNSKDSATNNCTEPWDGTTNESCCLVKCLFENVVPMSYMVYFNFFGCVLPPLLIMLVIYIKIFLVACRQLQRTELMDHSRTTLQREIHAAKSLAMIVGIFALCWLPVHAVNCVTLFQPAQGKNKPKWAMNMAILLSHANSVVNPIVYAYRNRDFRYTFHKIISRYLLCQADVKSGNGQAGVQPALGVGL
The series can be described thus: Radioligand binding ([125I]ABOPX / [3H]ZM241385) at human A2B receptors expressed in HEK-293 cells. Conditions: for Ki: read-out: hA2B Ki or IC50.

A further series has as its target T4, rat A1 receptors (rA1) (Rattus norvegicus, UniProt P25099).
T4 construct: to A1 receptors from rat cerebral cortical membranes; from tissue; host or cells: rat cerebral cortical (brain) membranes
T4 sequence (P25099 1-326): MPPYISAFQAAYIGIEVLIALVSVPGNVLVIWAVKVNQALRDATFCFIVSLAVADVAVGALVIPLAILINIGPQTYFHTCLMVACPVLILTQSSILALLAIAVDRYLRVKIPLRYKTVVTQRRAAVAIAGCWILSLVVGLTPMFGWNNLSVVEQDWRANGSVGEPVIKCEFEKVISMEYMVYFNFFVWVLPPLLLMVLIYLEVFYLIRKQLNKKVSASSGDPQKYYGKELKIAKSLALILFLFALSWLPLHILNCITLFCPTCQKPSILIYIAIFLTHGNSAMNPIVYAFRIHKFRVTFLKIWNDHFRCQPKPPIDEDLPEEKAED
The experiment in a line: Displacement of [3H]R-PIA binding in rat brain (cerebral cortical) membranes. Conditions: for Ki: read-out: rA1 Ki or IC50. How it is done:
as §1, §2

Series [2] concerns the target T5, recombinant human A1 receptors (hA1) (Homo sapiens, UniProt P30542).
T5 sequence (P30542 1-326): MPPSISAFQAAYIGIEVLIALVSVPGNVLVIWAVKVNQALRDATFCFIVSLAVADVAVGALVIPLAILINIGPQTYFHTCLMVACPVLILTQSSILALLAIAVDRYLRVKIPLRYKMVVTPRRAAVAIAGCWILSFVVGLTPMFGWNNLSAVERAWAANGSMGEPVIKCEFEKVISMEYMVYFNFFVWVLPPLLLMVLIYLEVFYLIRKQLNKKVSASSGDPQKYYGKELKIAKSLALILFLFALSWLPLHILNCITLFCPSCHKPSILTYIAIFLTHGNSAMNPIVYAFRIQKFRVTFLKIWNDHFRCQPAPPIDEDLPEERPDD
The experiment in a line: Radioligand binding ([3H]CPX) at recombinant human A1 receptors in HEK-293 cells. Conditions: read-out: hA1 Ki, values marked (h); Table 1; recombinant human A1, HEK 293.
Procedure: The potency of the xanthine derivatives at human A2B receptors was evaluated using two binding assays. […] In order to determine selectivity, the xanthines were evaluated using standard binding assays at A1, A2A, and A3 receptors.

Where [3] appears, read: Table 1, [3H]CGS 21680, rat striatal membranes.
[4] abbreviates: Table 1, [3H]R-PIA, rat brain membranes.

Structures are written as SMILES. Like-named read-outs stand apart in the source and are kept apart here.

For orientation: melting point means the temperature, or range, at which the solid turns liquid. In turn, `CC(=O)c1ccccc1NC(=O)/C=C/c1ccc(-c2nc3c([nH]2)c(=O)n(Cc2ccccc2)c(=O)n3Cc2ccccc2)cc1` (hydrate or solvate) [Compound 37, 8-[4-(2-(2-Acetylphenyl)carbamoyl-trans-vinyl)phenyl]-1,3-dibenzylxanthine] showed a melting point of 308 to 309 °C.

What is called Ki is the dissociation constant of the complex between target and ligand, obtained from inhibition or displacement. With `CCCn1c(=O)c2[nH]c(-c3ccc(OCC(=O)ON4C(=O)CCC4=O)cc3)nc2n(CCC)c1=O` [Compound 4b], the inhibitory constant (Ki) was 227 nM at human A3 receptors (hA3); 127 nM on rat A2A receptors (rA2A) (setting [3]); 9.75 ± 4.8 nM in series [1] (Table 1, [125I]ABOPX, HEK-293); 153 nM at rat A1 receptors (rA1) (setting [4]).

Turning to `O=C(O)COc1ccc(-c2nc3c([nH]2)c(=O)n(Cc2ccccc2)c(=O)n3Cc2ccccc2)cc1` [Compound 7, 8-[4-[(Carboxymethyl)oxy]phenyl]-1,3-dibenzyl-xanthine], the melting point is > 310 °C. Moreover, at rat A2A receptors (rA2A) (Table 1, at 100,000 nM), the “rA2A % displacement of specific binding” value was 25 ± 3%. The inhibition constant Ki in series [1] (Table 1, [125I]ABOPX, HEK-293) amounted to 1760 nM. Moreover, on rat A1 receptors (rA1) (setting [4]), the Ki came out at 679 ± 190 nM.

In the case of `O=C(O)C=Cc1ccc(-c2nc3c([nH]2)c(=O)n(CC2CCCCC2)c(=O)n3CC2CCCCC2)cc1` [Compound 9], the inhibition constant Ki turned out to be 922 ± 399 nM on human A3 receptors (hA3); 4890 nM in series [2]; 199 ± 52 nM in series [1] (Table 1, [125I]ABOPX, HEK-293); 602 ± 24 nM on rat A1 receptors (rA1) (setting [4]).

Consider `O=C(O)/C=C/c1ccc(-c2nc3c([nH]2)c(=O)n(Cc2ccccc2)c(=O)n3Cc2ccccc2)cc1` [Compound 10, 8-(4-(2-Carboxy-trans-vinyl)phenyl)-1,3-dibenzyl-xanthine], for which the melting point was > 310 °C. On rat A2A receptors (rA2A) (setting [3]), the inhibition constant (Ki) was 4450 nM. Further, in series [1] (Table 1, [125I]ABOPX, HEK-293), the Ki was found to be 469 ± 23 nM. In addition, at rat A1 receptors (rA1) (setting [4]), the inhibitory constant (Ki) stood at 201 ± 23 nM.

As for `CCCn1c(=O)c2[nH]c(-c3ccc(OCC(N)=O)cc3)nc2n(CCC)c1=O` [Compound 11], the results for the Ki on rat A2A receptors (rA2A) (Table 2) and on rat A1 receptors (rA1) (Table 2) were 76.3 ± 14 nM and 20 ± 3.8 nM, respectively. For the same compound, the “more potent than the carboxylic acid 4a at A2A receptors” value at rat A2A receptors (rA2A) (relative to 4a) stood at 29 fold. Further, in series [1] (relative to 4a), the “potency versus the carboxylic acid 4a at A2B receptors” value is “equipotent”. For the same compound, the “more potent than the carboxylic acid 4a at A1 receptors” value at rat A1 receptors (rA1) (relative to 4a) turned out to be 3 fold.

In turn, `CCCn1c(=O)c2[nH]c(-c3ccc(OCC(=O)NC(c4ccccc4)c4ccccc4)cc3)nc2n(CCC)c1=O` [Compound 14, 8-[4-[(Diphenylmethylcarbamoylmethyl)oxy]phenyl]-1,3-di-(n-propyl)xanthine] gave a melting point of 269 to 270 °C. Also, the rA2A % displacement at rat A2A receptors (rA2A) (Table 2, at (1000)) was determined as 20 ± 8%. The inhibition constant (Ki) in series [1] (Table 2) amounted to 33.7 ± 17 nM. For the same compound, the inhibition constant (Ki) on rat A1 receptors (rA1) (Table 2) was 120 ± 21 nM.

As for `CCCn1c(=O)c2[nH]c(-c3ccc(OCC(=O)N(C)c4ccccc4)cc3)nc2n(CCC)c1=O` [Compound 16, 8-[4-[(N-Methyl-N-phenylcarbamoylmethyl)oxy]phenyl]-1,3-di-(n-propyl)xanthine], the melting point was determined as 215 °C. Also, on rat A2A receptors (rA2A) (Table 2), the inhibition constant (Ki) came out at 497 ± 250 nM. For the same compound, in series [1], the “selectivity for human A2B versus rat A1 receptors” value was determined as 40 fold and the “selectivity for human A2B versus rat A2A receptors” value came out at 92 fold. For the same compound, the “reduction of affinity by N-methylation” value in series [1] (N-methyl anilide versus anilide, human A2B) is 3.7 fold. Besides, the Ki in series [1] (Table 2) came out at 5.42 ± 1.71 nM. Also, the inhibition constant Ki at rat A1 receptors (rA1) (Table 2) was 218 ± 80 nM.

On to `CCCn1c(=O)c2[nH]c(-c3ccc(OCC(=O)N(CC(=O)OCC)CC(=O)OCC)cc3)nc2n(CCC)c1=O` [Compound 17, 8-[4-[(N,N-bis(Ethoxycarbonylmethyl)carbamoylmethyl)oxy]-phenyl]-1,3-di-(n-propyl)xanthine], for which the melting point came out at 225 °C. In addition, the Ki on rat A2A receptors (rA2A) (Table 2) turned out to be 999 ± 144 nM. The inhibition constant Ki in series [1] (Table 2) worked out at 43.4 ± 8.4 nM. For the same compound, the Ki at rat A1 receptors (rA1) (Table 2) is 26.8 ± 2.4 nM.

With `CCCn1c(=O)c2[nH]c(-c3ccc(OCC(=O)Nc4ccc(C(N)=O)cc4)cc3)nc2n(CCC)c1=O` [Compound 22, 8-[4-[((4-Carbamoyl)phenylcarbamoylmethyl)oxy]phenyl]-1,3-di-(n-propyl)xanthine], the melting point is > 310 °C. The Ki on rat A2A receptors (rA2A) (Table 2) came to 683 ± 167 nM. Moreover, the Ki in series [1] (Table 2) came out at 7.75 ± 1.11 nM. Besides, the Ki at rat A1 receptors (rA1) (Table 2) came out at 10.2 ± 2.5 nM.

As for `CCCn1c(=O)c2[nH]c(-c3ccc(OCC(=O)Nc4ccc(C(=O)NC)cc4)cc3)nc2n(CCC)c1=O` [Compound 23, 8-[4-[((4-Methylcarbamoyl)phenylcarbamoylmethyl)oxy]phenyl]-1,3-di-(n-propyl)xanthine], the melting point is > 310 °C. The inhibition constant Ki at rat A2A receptors (rA2A) (Table 2) turned out to be 98.1 ± 49.6 nM. Besides, in series [1] (Table 2), the Ki worked out at 3.34 ± 0.51 nM. Also, the Ki on rat A1 receptors (rA1) (Table 2) is 24.8 ± 1.8 nM.

As for `CCCn1c(=O)c2[nH]c(-c3ccc(OCC(=O)Nc4ccc(C(=O)O)cc4)cc3)nc2n(CCC)c1=O` [Compound 24, 8-[4-[((4-Carboxy)phenylcarbamoylmethyl)oxy]phenyl]-1,3-di-(n-propyl)xanthine], the melting point is > 310 °C. The inhibitory constant (Ki) at rat A2A receptors (rA2A) (Table 2) is 220 ± 79 nM. Moreover, the inhibition constant Ki in series [1] (Table 2) was 16.1 ± 4.7 nM. Moreover, the Ki on rat A1 receptors (rA1) (Table 2) was 145 ± 28 nM.

Consider `CCCn1c(=O)c2[nH]c(-c3ccc(OCC(=O)Nc4ccc(C)cc4)cc3)nc2n(CCC)c1=O` [Compound 25], for which the inhibition constant (Ki) is 126 ± 38 nM on rat A2A receptors (rA2A) (Table 2), 1.88 ± 0.76 nM in series [1] (Table 2) and 17.5 ± 5 nM at rat A1 receptors (rA1) (Table 2).

`CCCn1c(=O)c2[nH]c(-c3ccc(OCC(=O)Nc4ccc(O)cc4)cc3)nc2n(CCC)c1=O` [Compound 26]: the inhibition constant Ki at rat A2A receptors (rA2A) (Table 2) was 63.3 ± 20.4 nM; in series [1] (Table 2) it was 3.71 ± 0.76 nM; on rat A1 receptors (rA1) (Table 2) it was 5.88 ± 1.06 nM.

The compound `CC(=O)c1ccccc1NC(=O)/C=C/c1ccc(-c2nc3c([nH]2)c(=O)n(CC2CCCCC2)c(=O)n3CC2CCCCC2)cc1` [Compound 36, 8-[4-(2-(2-Acetylphenyl)carbamoyl-trans-vinyl)phenyl]-1,3-di-(cyclohexylmethyl)xanthine] displayed a melting point of 305 °C.

Consider `CC(=O)c1ccccc1NC(=O)COc1ccc(-c2nc3c([nH]2)c(=O)n(Cc2ccccc2)c(=O)n3Cc2ccccc2)cc1` [Compound 38, 8-[4-[((2-Acetylphenyl)carbamoylmethyl)oxy]phenyl]-1,3-dibenzyl-xanthine], for which the melting point was found to be 284 °C.

As to `CCn1c(=O)c2[nH]c(-c3ccc(OCC(=O)Nc4ccc(C)cc4)cc3)nc2n(CC)c1=O` [Compound 39], the Ki at rat A2A receptors (rA2A) (Table 3) was found to be 71.1 ± 7.7 nM; in series [1] (Table 3), 1.78 ± 0.43 nM; on rat A1 receptors (rA1) (Table 3), 34.9 ± 0.3 nM.
